These results are taken from patent US12661415B2, “Isoindolinone compounds and imaging agents for imaging Huntingtin protein” (CHDI Foundation, Inc., priority 2021, dated 2026).

By IC50 is commonly meant the concentration needed to halve the response being measured.

Data set [1] can be described thus: Unbound brain fraction (fu,brain) in mouse brain by equilibrium dialysis. In kind it is in vitro ADME. Particulars: 20% mouse brain homogenate, 5 μM, equilibrium dialysis 6 h at 37° C., average of triplicate. Here is the method:
Compounds were tested for unbounded brain fraction (or free fraction in brain, fu,brain). It is an accepted standard in the CNS PET imaging field that compounds with low unbound fraction in brain (<5%) likely have high non-specific binding background that is undesirable for the detection of target binding. As a result, fu,brain is an important property in the design of PET ligands for brain imaging [see Zhang et al., Design and selection parameters to accelerate the discovery of novel central nervous system positron emission tomography (PET) ligands and their application in the development of a novel phosphodiesterase 2A PET ligand. J Med Chem 2013, 56 (11), 4568-79; Liu et al., Imaging Mutant Huntingtin Aggregates: Development of a Potential PET Ligand. J Med Chem 2020, 63 (15), 8608-8633].
Determining fu,brain in Mouse Brain by Equilibrium Dialysis. Dialysis membranes (12-14 kDa) (HTDialysis, Connecticut) were soaked in phosphate buffer (10 mM potassium phosphate and 0.8% sodium chloride buffer, pH 7.4 at 37° C.) for a minimum of 1 h, at this time ethanol was added (final concentration of 20% v/v) and membranes continued to soak for 30 min Mouse brain tissue was diluted in phosphate buffer in a […] (w/v) and homogenised using a Precellys 24 (Stretton Scientific, UK) to achieve a final concentration of 20% brain homogenate.
Test compounds prepared as DMSO stocks at 0.5 mM are diluted into brain homogenate to achieve 5 μM final substrate concentration (1% DMSO) and a t=0 sample was prepared by sampling 50 μL of into 400 μL of quench solution (Acetonitrile containing 0.1% formic acid and sulfisoxazole/tolbutamide/imipramine/labetalol 200 nM). Samples were matrix matched with the addition of 50 μL of assay buffer. The HTDialysis Teflon blocks (HTDialysis, Connecticut) were assembled with pre-soaked membrane between each receiver and donor well and clamped in the stainless steel pressure plate (HTDialysis, Connecticut). The lower compartment (acceptor side) was dosed with 120 μL of buffer and the upper compartment (donor side) was dosed with 120 μL of compound in homogenate. All test compounds and controls were completed in triplicate. The HT dialysis plate was sealed and incubated for 6 h at 37° C. shaking at 250 rpm.
Following the incubation, 50 μL of sample was removed from all donor and acceptor wells and transferred into a quench plate containing 400 μL of quench solution. All samples were matrix matched with 50 μL of the alternate blank matrix. Analytical samples were diluted 1:1 with water using the Janus Robot and analysed by LC-MS/MS.
Peak areas of donor and acceptor compartments were compared to determine percent unbound (% fu) and the average of triplicate measurements was reported. Reference T0 sample was used to calculate sample recovery (%). Control compounds were compared with historic and literature values to ensure assay functionality.

The target of data set [2] is T1, MBP-HTT(1-89)Q46-His(6×) (Exon1-Q46) protein aggregates (Homo sapiens, UniProt P42858, INS38QQQQQQQQQQQQQQQQQQQQQQQQQ).
T1 construct: MBP-HTT(1-89)Q46-His(6×); His(6×) (C); made in house
T1 sequence (P42858 with tags, fused parts or gaps with the stated changes): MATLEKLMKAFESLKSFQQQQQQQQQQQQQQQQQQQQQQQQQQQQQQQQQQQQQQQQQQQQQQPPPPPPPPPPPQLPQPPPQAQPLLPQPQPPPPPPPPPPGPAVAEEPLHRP
Nature of the data set: Exon1-Q46 radioligand binding assay (RBA). Particulars: aggregated Exon1-Q46 1 μM; 0.3 nM ligand [3H3-methyl]-5-((5-methoxypyridin-2-yl)methoxy)-2-(pyrazin-2-yl)benzo[d]oxazole; 60 minutes at 37° C.; read-out: Potency Range (IC50). Here is the method: Exon1-Q46 Radioligand Binding Assay
For radioligand binding assays (RBA) MBP-HTT(1-89)Q46-His(6×) (“Exon1-Q46”) protein was generated based on a previous publication (Scherzinger et al. Cell, Vol. 90, 549-558, Aug. 8, 1997). For experiments 30 μM MBP-Exon1-Q46 was incubated with 150 μg/mL thrombin in assay buffer (150 mM NaCl, 50 mM Tris pH 8.0) and 2 mM CaCl2 for 16 hours at 37° C. Aggregated Exon1-Q46 was pelleted by centrifugation for 5 minutes at 13,000 rpm in a bench top centrifuge and re-dissolved in the same volume of assay buffer. Test compounds were prepared by titration in DMSO at 11 concentrations from 63 μM to 2 nM. For the RBA, Exon1-Q46 protein aggregates and test compounds were pre-incubated in assay buffer for 20 minutes at room temperature, in 100 μL/well in a 96-well plate (pp, round bottom). Then, ligand was added in 50 μL/well and incubated for 60 minutes at 37° C. Final assay concentrations were 1 μM to 30 pM test compound, 1 μM Exon1-Q46 protein (equivalent monomer concentration) and 0.3 nM ligand [^3H3-methyl]-5-((5-methoxypyridin-2-yl)methoxy)-2-(pyrazin-2-yl)benzo[d]oxazole. Samples were transferred onto GF/B filter plates and washed 2× with 200 μL PBS using a Filtermate Harvester. After drying filter plates for 1 hour at 55° C., the back of the plates were sealed with foil and 30 μL/well scintillation fluid (Packard MicroScint 40) added, incubated for 15 minutes in the dark and counted in a MicroBeta reader. For analysis, replicate data from independent assay plates were normalized towards 0% and 100% inhibition using control wells of vehicle (0% inhibition) and 1 μM unlabelled [^3H3-methyl]-5-((5-methoxypyridin-2-yl)methoxy)-2-(pyrazin-2-yl)benzo[d]oxazole (100% inhibition). IC50 values were determined with a sigmoidal inhibition model with four variables (top, bottom, slope, IC50) in a global fit using the normalized replicate data.
The results for various example compounds were as provided in the table below (+++<100 nM; ++100−500 nM; +>500 nM; ND: not determined): […]

Take `COc1ccc(COc2ccc3c(c2)CN(c2ccc(=O)n(C)n2)C3)nc1` [Comparative Compound 1, reference compound]: the “Mean Free Brain Fraction (%)” value in data set [1] came out at 1.3%.
Turning to `Cn1nc(N2Cc3cc(OCc4ccc(F)cn4)ccc3C2=O)ccc1=O` [Compound 1-1, 5-((5-Fluoropyridin-2-yl)methoxy)-2-(1-methyl-6-oxo-1,6-dihydropyridazin-3-yl)isoindolin-1-one], in data set [2], the IC50 is less than 100 nM. Besides, the “Mean Free Brain Fraction (%)” value in data set [1] is given as 12.0%.
For `Cn1nc(N2Cc3cc(OCc4ccc(I)cn4)ccc3C2=O)ccc1=O` [Compound 1-3, 5-[(5-Iodopyridin-2-yl)methoxy]-2-(1-methyl-6-oxo-1,6-dihydropyridazin-3-yl)-2,3-dihydro-1H-isoindol-1-one], in that order: less than 100 nM and 1.2%.
As for `COc1ccc(COc2ccc3c(c2)CN(c2ccncc2)C3=O)nc1` [Compound 1-4, 5-[(5-Methoxypyridin-2-yl)methoxy]-2-(pyridin-4-yl)-2,3-dihydro-1H-isoindol-1-one], the IC50 in data set [2] was less than 100 nM. The “Mean Free Brain Fraction (%)” value in data set [1] is given as 3.0%.
Take `Cn1nc(N2Cc3cc(O)ccc3C2=O)ccc1=O` [Compound 1-5, 5-Hydroxy-2-(1-methyl-6-oxo-1,6-dihydropyridazin-3-yl)-2,3-dihydro-1H-isoindol-1-one]: the IC50 in data set [2] is less than 100 nM.
As to `COc1ccc(COc2ccc3c(c2)CN(c2ccc(=O)n(C)n2)C3=O)nc1` [Compound 1-6, 5-[(5-Methoxypyridin-2-yl)methoxy]-2-(1-methyl-6-oxo-1,6-dihydropyridazin-3-yl)-2,3-dihydro-1H-isoindol-1-one], in data set [2], the IC50 is less than 100 nM. Moreover, the “Mean Free Brain Fraction (%)” value in data set [1] is 9.8%.
For `COc1cnc(COc2ccc3c(c2)CN(c2ccc(=O)n(C)n2)C3=O)c(F)c1` [Compound 1-7, 5-[(3-Fluoro-5-methoxypyridin-2-yl)methoxy]-2-(1-methyl-6-oxo-1,6-dihydropyridazin-3-yl)-2,3-dihydro-1H-isoindol-1-one], in that order: less than 100 nM and 11.9%.
For `[2H]C([2H])(F)C([2H])([2H])Oc1ccc(COc2ccc3c(c2)CN(c2ccc(=O)n(C)n2)C3=O)nc1` [Compound 1-8, 5-({5-[2-Fluoro(1,1,2,2-^2H4)ethoxy]pyridin-2-yl}methoxy)-2-(1-methyl-6-oxo-1,6-dihydropyridazin-3-yl)-2,3-dihydro-1H-isoindol-1-one], in that order: less than 100 nM and 10.1%.
On to `[2H]C([2H])(Oc1ccc(COc2ccc3c(c2)CN(c2ccc(=O)n(C)n2)C3=O)nc1)C([2H])([2H])OS(=O)(=O)c1ccc(C)cc1` [Compound 1-9, 2-{[6-({[2-(1-Methyl-6-oxo-1,6-dihydropyridazin-3-yl)-1-oxo-2,3-dihydro-1H-isoindol-5-yl]oxy}methyl)pyridin-3-yl]oxy}(1,1,2,2-^2H4)ethyl 4-methylbenzene-1-sulfonate], for which the IC50 in data set [2] is less than 100 nM.
Regarding `CC(F)Oc1ccc(COc2ccc3c(c2)CN(c2ccc(=O)n(C)n2)C3=O)nc1` (stereo not drawn) [Compound 1-10, 5-{[5-(1-Fluoroethoxy)pyridin-2-yl]methoxy}-2-(1-methyl-6-oxo-1,6-dihydropyridazin-3-yl)-2,3-dihydro-1H-isoindol-1-one], in data set [2], the IC50 is less than 100 nM. The “Mean Free Brain Fraction (%)” value in data set [1] was determined as 3.8%.
On to `COc1cnc(COc2ccc3c(c2)CN(c2ccc(=O)n(C)n2)C3=O)cc1Cl` [Compound 1-11, 5-[(4-Chloro-5-methoxypyridin-2-yl)methoxy]-2-(1-methyl-6-oxo-1,6-dihydropyridazin-3-yl)-2,3-dihydro-1H-isoindol-1-one], for which, in data set [2], the IC50 was less than 100 nM. In addition, the “Mean Free Brain Fraction (%)” value in data set [1] came out at 1.6%.
For `COc1ccc(COc2ccc3c(c2)C(=O)N(c2ccc(=O)n(C)n2)C3)nc1` [Compound 1-12, 6-[(5-Methoxypyridin-2-yl)methoxy]-2-(1-methyl-6-oxo-1,6-dihydropyridazin-3-yl)-2,3-dihydro-1H-isoindol-1-one], in that order: less than 100 nM and 9.0%.
Consider `COc1ccc(COc2ccc3c(c2)CN(c2ccc(=O)n(C)n2)C3=O)nc1F` [Compound 1-13, 5-[(6-Fluoro-5-methoxy-2-pyridyl)methoxy]-2-(1-methyl-6-oxo-pyridazin-3-yl)isoindolin-1-one], for which the IC50 in data set [2] was less than 100 nM. For the same molecule, the “Mean Free Brain Fraction (%)” value in data set [1] turned out to be 7.0%.
Take `COc1cnc(COc2ccc3c(c2)CN(c2ccc(=O)n(C)n2)C3=O)cc1F` [Compound 1-14, 5-[(4-Fluoro-5-methoxypyridin-2-yl)methoxy]-2-(1-methyl-6-oxo-1,6-dihydropyridazin-3-yl)-2,3-dihydro-1H-isoindol-1-one]: the “Mean Free Brain Fraction (%)” value in data set [1] is reported as 12.0%.
As for `Cn1nc(N2Cc3cc(OCc4ccc(OCCF)cn4)ccc3C2=O)ccc1=O` [Compound 2-1, 5-{[5-(2-Fluoroethoxy)pyridin-2-yl]methoxy}-2-(1-methyl-6-oxo-1,6-dihydro-pyridazin-3-yl)-2,3-dihydro-1H-isoindol-1-one], in data set [2], the IC50 was less than 100 nM. Besides, the “Mean Free Brain Fraction (%)” value in data set [1] came out at 14.3%.
Turning to `Cn1nc(N2Cc3cc(OCc4ccc(O)cn4)ccc3C2=O)ccc1=O` [Compound 4-1, 5-[(5-Hydroxypyridin-2-yl)methoxy]-2-(1-methyl-6-oxo-1,6-dihydropyridazin-3-yl)-2,3-dihydro-1H-isoindol-1-one], in data set [2], the half-inhibitory concentration (IC50) is less than 100 nM.
Still for that read-out and setting: next, `COc1ccc(COc2ccc3c(c2)CN(Cc2ccc(OC)nc2)C3=O)nc1` [Compound 7-1, 5-[(5-Methoxypyridin-2-yl)methoxy]-2-[(6-methoxypyridin-3-yl)methyl]-2,3-dihydro-1H-isoindol-1-one]: 100 to 500 nM; `[2H]C([2H])(F)C([2H])([2H])Oc1ccc(COc2ccc3c(c2)CN(c2ccc(=O)[nH]n2)C3=O)nc1` [Compound 9-2, 5-((5-(2-Fluoroethoxy-1,1,2,2-^2H4)pyridin-2-yl)methoxy)-2-(6-oxo-1,6-dihydropyridazin-3-yl)isoindolin-1-one]: less than 100 nM.
The same measure, in the same setting: under `[2H]C([2H])(F)C([2H])([2H])Oc1ccc(COc2cnc3c(c2)CN(c2ccc(=O)n(C)n2)C3=O)nc1` [Compound 12-9, 6-[3-([5-[2-Fluoro(1,1,2,2-^2H4)ethoxy]pyridin-2-yl]methoxy)-7-oxo-5H,6H,7H-pyrrolo[3,4-b]pyridin-6-yl]-2-methyl-2,3-dihydropyridazin-3-one] stands less than 100 nM.
